Assay results as given in ChEMBL document CHEMBL4028808, “Design and synthesis of selective CDK8/19 dual inhibitors: Discovery of 4,5-dihydrothieno[3',4':3,4]benzo[1,2-d]isothiazole derivatives” (Bioorg Med Chem, 2017).
Converted amounts (≈) assume the structure as drawn.

Key:
[1] = Aqueous solubility of the compound in DMSO at pH 6.8 by HPLC method; type: physicochemical
Homo sapiens = organism: Homo sapiens; assay: Inhibition of PKA (unknown origin) at 1 uM using PKA peptide as substrate preincubated for 5 mins followed by substrate addition measured after 10 mins in presence of [gamma33P]ATP by scintillation counter method relative to control
[2] = target: CDK2/Cyclin A2 (Homo sapiens) (UniProt P24941+P20248); assay: Inhibition of CDK2/cyclin A (unknown origin) at 1 uM using histone H1 as substrate preincubated for 5 mins followed by substrate addition measured after 20 mins in presence of [gamma33P]ATP by scintillation counter method relative to control; type: protein-complex assay
[3] = target: CDK8/Cyclin C (Homo sapiens) (UniProt P49336+P24863); conditions: 1 uM
Description: Inhibition of kinase tracer-236 binding to GST-tagged CDK8/CyclinC (unknown origin) at 1 uM after 60 mins by TR-FRET assay relative to control

RPMI-8226 = assay: Antitumor activity against human RPMI8226 cells xenografted in C.B17/Icr scid/scid Jcl mouse assessed as tumor growth suppression at 2.5 mg/kg, po qd administered for 14 days measured post last dose relative to control; type: functional

COCCNC(=O)c1ccc(Oc2sc(C(N)=O)c3c2-c2sncc2CC3)cn1
solubility [1]: 47 µg/mL (≈ 109 µM) | inhibition (Homo sapiens): 1% | inhibition [2]: 62% | inhibition [3]: 105% | T/C (RPMI-8226): -1%
